Publication PMC4503694, “The Human Autoantibody Response to Apolipoprotein A-I Is Focused on the C-Terminal Helix: A New Rationale for Diagnosis and Treatment of Cardiovascular Disease?” (PLoS ONE, 2015)

Key:
[1] = system: anti-ApoA-I autoantibodies in pooled patient plasma; assay: Capture ELISA: immunoreactivity of pooled anti-ApoA-I-positive patient plasma to coated peptides; type: binding, human; conditions: pooled plasma of anti-ApoA-I-positive patients; peptide as coating antigen; mean ± SD, n = 3 (Fig 1a)
Procedure: Anti-ApoA-I IgG autoantibodies in plasma were measured as described previously. Briefly, Maxisorp plates (Nunc) were coated with purified and delipidated human ApoA-I, diluted in carbonate buffer pH 9.7 (20 μg/ml; 50 μl/well), for 1 h at 37°C. The same procedure was used for the engineered peptides. After three washes with PBS/ 2% (w/v) BSA (100 μl/well), all wells were blocked for 1 h with PBS/ 2% (w/v) BSA at 37°C. Samples were diluted 1:50 in PBS/ 2% (w/v) BSA and incubated for 60 min at 37°C. Samples at the same dilution were also added to a non-coated well to assess individual non-specific binding. After six further washes, 50 μl/well of alkaline-phosphatase conjugated anti-(human IgG) (Sigma-Aldrich), diluted 1:1000 in PBS/ 2% (w/v) BSA, was incubated for 1 h at 37°C. After six more washes (150 μl/well) with PBS/ 2% (w/v) BSA, the phosphatase substrate p-nitrophenyl phosphate (50μl/well; 1mg/ml; Sigma—Aldrich) dissolved in 4.8% (w/v) diethanolamine (pH 9.8) was added. Each sample was tested in duplicate and A 405nm was determined after 20 min of incubation at 37°C (VERSAMax; MolecularDevices). The corresponding non-specific binding was subtracted from the mean absorbance for each sample. As in previous studies, positive immunoreactivity of human samples to ApoA-I was prospectively defined by an index >37%. This value was also used to define positive immunoreactivity to mimetic peptides, as defined upon receiver operating characteristic (ROC) curve analyses, and shown to provide an identical prevalence of positive immunoreactivity levels 11% […] to native ApoA-1 and 11% (14/132) to F3L1 peptide (data not shown). Repeatability and reproducibility were determined at two levels. At a high level (A 405nm = 1.2, i.e. twice the cut-off value), the intra- and inter-assay coefficients of variation were 10% (n = 10) and 17% (n = 10) respectively. At the cut-off level, the intra- and inter-assay coefficients of variation were 16% (n = 10) and 12% (n = 8) respectively.
In order to characterize the anti-ApoA-I autoantibody response, we chemically synthesized a panel of peptides corresponding to the different alpha-helical regions in the protein (Table 1). Each of the two longest helical regions, C and D, were synthesized as two separate peptides (C1, C2, D1, D2) whose sequences are located on either side of centrally located proline residues (Pro^121 for Region C, Pro^165 for Region D (Table 1)). The synthetic peptides were then used as coating antigens in a capture ELISA experiment to compare their immunoreactivity against pooled plasma from a subset of patients from our acute chest pain cohort that had previously shown to be positive for anti-ApoA-I autoantibodies (Fig 1a).
(§1) Fig 1 The anti-ApoA-I autoantibody response is strongly biased towards the C-terminal alpha-helical region. ELISA experiments were carried out using a set of ApoA-I-derived peptides (Table 1). a. Capture ELISA assay to determine the immunoreactivity of plasma pooled from patients known to be positive for anti-ApoA-I autoantibodies against the set of peptides. Specific ELISA signals were calculated as [signal in well]-[mean background signal (uncoated well)]. Results are expressed as mean ± SD (n = 3) b and c. Competition ELISA to determine the capacity of the set of peptides to block binding of anti-ApoA-I antibodies from either pooled patient plasma (b) or goat polyclonal IgG (c) to immobilized ApoA-I. Plasma or antibody was preincubated (2 h, room temperature) with peptides at the indicated concentrations prior to addition to assay wells. Percent maximal ELISA signals were calculated as 100 × ([signal in well]-[mean background signal (uncoated well)])/([mean maximal signal (no peptide)]-[mean background signal]). Results are expressed as mean ± SD (n = 3).

[2] = system: human monocyte-derived macrophages; assay: Anti-ApoA-I IgG-mediated IL-6 and TNF-α release from human monocyte-derived macrophages; type: cell-based; conditions: peptide preincubated with anti-ApoA-I IgG 2 h at room temperature; highest concentration 1 mg/mL (Fig 5, 6)
Procedure: Human monocytes were isolated from buffy coats from healthy donors at the Geneva University Hospitals Blood Transfusion Center and differentiated into macrophages by 24 h incubation with IFN-γ (500 U/ml) in complete RPMI-1640 culture medium (10% heat-inactivated FCS, 50 μg/ml streptomycin, 50 U/ml penicillin, 2 mM L-glutamine), as previously described. Assays of anti-ApoA-I IgG-mediated release of IL-6 and TNF-α from human monocyte-derived macrophages was carried out as described previously using a previously determined optimal concentration of polyclonal goat anti-ApoA-I IgG (40 μg/ml). Endotoxin contamination in the assay was excluded using the limulus amebocyte lysate Endochrome assay. Where indicated, anti-ApoA-I IgG was pre-incubated with peptide […] (1 mg/mL) for 2 h at room temperature prior addition to the cells. Each experiment was performed on cells from […] different healthy blood donors. […] We next used a Luminex assay to measure the capacity of peptide […] to inhibit endotoxin-free anti-ApoA-I IgG-mediated proinflammatory cytokine release in human monocyte-derived macrophages (Fig 5a and 5b). As expected from previously published work, anti-ApoA-I IgG elicited a significant increase in production of both in IL-6 and TNF-α when compared to control IgG (Ctl IgG; p<0.0001 for both cytokines). […] We were unable to measure the inhibitory activity of intact purified and delipidated ApoA-I in this assay because traces of endotoxin elicit significant levels of background cytokine secretion (NV and SP, unpublished observations).  Fig 5 Peptide […] inhibits anti-ApoA-I IgG-mediated release of proinflammatory cytokines from cultured human monocyte-derived macrophages. Release of proinflammatory cytokines TNF-α (a) IL-6 (b) from human monocyte-derived macrophages induced by endotoxin-free goat polyclonal anti-ApoA-I IgG was determined with or without preincubation (2 h at room temperature) of the anti-ApoA-I IgG with peptide […] (1 mg/mL) and the corresponding scrambled peptide (Scr Pept). […] Anti-ApoA-I IgG was incubated with the indicated […] concentrations (preincubation 2 h at room temperature) prior to addition to cultured human monocyte-derived macrophages. Levels of proinflammatory cytokines were determined after 24 h culture. Experiments were repeated using cells from three different healthy donors, with results expressed as median, interquartile range (IQR) and range.

[3] = system: goat polyclonal anti-ApoA-I IgG; assay: Competition ELISA: peptides block binding of goat polyclonal IgG to immobilized ApoA-I; conditions: goat polyclonal anti-ApoA-I IgG preincubated with peptide; wells coated with ApoA-I (Fig 1c)
Procedure: as §1, with “3). […] In contrast, when pre-incubated with goat polyclonal anti-ApoA-I IgG, none of the peptides, including Peptide F, decreased signal inhibition by 15% at the highest concentration (Fig 1c). […]” for “3).”

[4] = system: anti-ApoA-I antibodies from pooled patient plasma; assay: Competition ELISA: peptides block binding of antibodies from pooled patient plasma to immobilized ApoA-I; parameters: species or system human; conditions: pooled patient plasma preincubated 2 h at room temperature with peptide; wells coated with intact ApoA-I (Fig 1b)
Procedure: as §1, with “3). […] In contrast, when pre-incubated with goat polyclonal anti-ApoA-I IgG, none of the peptides, including Peptide F, decreased signal inhibition by 15% at the highest concentration (Fig 1c). […]” for “3).”

[5] = system: anti-ApoA-I antibodies in plasma samples from three different patients; assay: Competition ELISA with plasma of three individual anti-ApoA-I-positive patients; type: binding, human; conditions: preincubated 2 h at room temperature with peptide, n = 3 (Fig 3)
Procedure: We next performed ELISA assays using plasma samples from three different anti-ApoA-I autoantibody-positive patients from the cohort pre-incubated with Peptide F, a scrambled version of Peptide F (Table 1), or the stapled peptide F3L1 prior to addition to wells coated with ApoA-I (Fig 3).
Plasma samples were preincubated (2 h, room temperature) with peptides at the indicated concentrations prior to addition to assay wells. Percent maximal ELISA signals were calculated as 100 × ([signal in well]-[mean background signal (uncoated well)])/ ([mean maximal signal (no peptide)]-[mean background signal]). Results are expressed as mean ± SD (n = 3).

RAW cells = assay: Anti-ApoA-I IgG-induced TNF-α release in RAW mouse macrophage cell line; type: cell-based; conditions: anti-ApoA-I IgG 100 μg/ml preincubated 2 h with peptide 100 to 0.06 μg/ml; 24 h stimulation; ELISA; n = 3 (Fig 7)
Procedure: Raw cells were seeded in 96-well plates at 2 × 10^5 cells/well in DMEM culture medium (10% heat-inactivated FCS, 50 μg/ml streptomycin, 50 U/ml penicillin) for 24 h. Anti-Apo-A1 IgG (100 μg/ml) were incubated with peptides across a concentration range from 100 μg/ml to 0.06 μg/ml for 2 h at room temperature prior addition to cells. After 24 h stimulation, mouse TNF-α was quantified in the cell supernatants by ELISA according to manufacturer’s instructions (R&D system, MN).
Fig 7 Comparing the inhibitory potency of Peptide F and F3L1 on anti-ApoA-I IgG-induced TNF-α. Anti-ApoA-I IgG was incubated with the indicated peptide concentrations (preincubation 2 h at room temperature) prior to addition to cultured RAW cells. Levels of proinflammatory cytokines (TNF-α) were determined after 24 h culture. Mean levels (n = 3) are shown with error bars indicating the range.

Row | Substance | plasma immunoreactivity (specific ELISA signal) to coated peptide [1] | other results
1 | A: ApoA-I-derived peptide, residues 10–39 (RVKDLATVYVDVLKDSGRDYVSQFEGSALG; UniProt P02647 34-63, looked up, fragment) | low signals | 
2 | B: ApoA-I-derived peptide, residues 50–84 (WDSVTSTFSKLREQLGPVTQEFWDNLEKETEGLRQ; UniProt P02647 74-108, looked up, fragment) | intermediate signals | 
3 | C1: ApoA-I-derived peptide, residues 97–120 (VQPYLDDFQKKWQEEMELYRQKVE; UniProt P02647 121-144, looked up, fragment) [Peptide C1] | low signals | 
4 | C2: ApoA-I-derived peptide, residues 122–142 (LRAELQEGARQKLHELQEKLS; UniProt P02647 146-166, looked up, fragment) [Peptide C2] | intermediate signals | 
5 | E: ApoA-I-derived peptide, residues 190–213 (AEYHAKATEHLSTLSEKAKPALED; UniProt P02647 214-237, looked up, fragment) | low signals | 
6 | GLLPVLESFKVSFLSALEEYTKKLNT [Peptide F, ApoA-I-derived peptide, residues 220–242, C-terminal alpha-helix] | strongest signal | inhibition of anti-ApoA-I IgG-induced TNF-α and IL-6 release [2]: comparable to that of F3L1; decrease of ELISA signal at the highest peptide concentration [3]: < 15%; maximal inhibition plateau of total anti-ApoA-I signal [4]: approximately 50%; peptide concentration above which inhibition of ELISA signal is seen [4]: above 3 μM
7 | KELYLLKFTVESKVGSTELPLNFSLA [F (scrambled), scrambled version of Peptide F, control peptide, reference compound] |  | inhibition of anti-ApoA-I IgG-induced TNF-α and IL-6 release [2]: did not inhibit; inhibition of binding of anti-ApoA-I IgG to immobilized ApoA-I [5]: No inhibition was detectable; inhibitory potency on anti-ApoA-I IgG-induced TNF-α (RAW cells): no detectable inhibitory activity
8 | LGEEMRDRARAHVDALRTHLAPYSDEL [Peptide D1, ApoA-I-derived peptide, residues 143–164] | low signals | 
9 | YSDELRQRLAARLEALKENGGA [Peptide D2, ApoA-I-derived peptide, residues 166–187] | low signals | 
